Measurements taken from the supplement of paper PMC10307832.

How the values were obtained:
Assay in all cases: relative viability (nuclei count vs DMSO), 5 days (fraction); higher = more cells survive
[1] = compound: COC1=C(C=C(C=C1)C2=CC3=NC=CN3C(=N2)NC4=C(C=CC=N4)C(=O)N)OC [BAY61-3606] + CC(C)C[C@H](NC(=O)[C@H](Cc1ccccc1)NC(=O)c1cnccn1)B(O)O [Bortezomib] (partner 0.002 µM)
Summary of the method: (§1)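 Dosing by pin tool came one day after lung cancer cell lines were seeded in 1536-well plates, using either one drug or a fixed anchor-drug dose plus five library-drug doses (not always all listed) in √10 steps. After 5 days, nuclei were counted on 4× images. Relative viability is treated-well nuclei count divided by vehicle-well nuclei count, and values are medians of duplicate plates.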

[2] = compound: COC1=C(C=C(C=C1)C2=CC3=NC=CN3C(=N2)NC4=C(C=CC=N4)C(=O)N)OC [BAY61-3606] + C[C@]1(O)C[C@@H](c2nc(-c3ccc4ccc(-c5ccccc5)nc4c3)c3c(N)nccn32)C1 [Linsitinib] (partner 1 µM)
Summary of the method: as §1

[3] = compound: COc1cccc2c1C(=O)c1c(O)c3c(c(O)c1C2=O)C[C@@](O)(C(=O)CO)C[C@@H]3O[C@H]1C[C@H](N)[C@H](O)[C@H](C)O1 [Doxorubicin] + CC(=O)c1c(C)c2cnc(Nc3ccc(N4CCNCC4)cn3)nc2n(C2CCCC2)c1=O [Palbociclib] (partner 0.5 µM)
Summary of the method: as §1

[4] = compound: COc1cccc2c1C(=O)c1c(O)c3c(c(O)c1C2=O)C[C@@](O)(C(=O)CO)C[C@@H]3O[C@H]1C[C@H](N)[C@H](O)[C@H](C)O1 [Doxorubicin] + Cc1nc(Nc2ncc(C(=O)Nc3c(C)cccc3Cl)s2)cc(N2CCN(CCO)CC2)n1 [Dasatinib] (partner 0.075 µM)
Summary of the method: as §1

Row | Cell Line | relative viability ([1]; first compound 0.02 µM) | relative viability ([1]; first compound 0.06325 µM) | relative viability ([1]; first compound 0.2 µM) | relative viability ([1]; first compound 0.6325 µM) | relative viability ([1]; first compound 2 µM) | relative viability ([2]; first compound 0.02 µM) | relative viability ([2]; first compound 0.06325 µM) | relative viability ([2]; first compound 0.2 µM) | relative viability ([2]; first compound 0.6325 µM) | relative viability ([2]; first compound 2 µM) | relative viability ([3]; first compound 0.001 µM) | relative viability ([3]; first compound 0.003162 µM) | relative viability ([3]; first compound 0.01 µM) | relative viability ([3]; first compound 0.03162 µM) | relative viability ([3]; first compound 0.1 µM) | relative viability ([4]; first compound 0.001 µM) | relative viability ([4]; first compound 0.003162 µM) | relative viability ([4]; first compound 0.01 µM) | relative viability ([4]; first compound 0.03162 µM) | relative viability ([4]; first compound 0.1 µM)
1 | NCI-H2347 | 1.09 | 0.815 | 0.971 | 0.869 | 1.01 | 1.03 | 0.97 | 0.978 | 1.03 | 0.898 | 0.456 | 0.427 | 0.38 | 0.394 | 0.506 | 0.271 | 0.322 | 0.327 | 0.283 | 0.307
2 | NCI-H2405 | 0.992 | 0.973 | 0.961 | 0.964 | 0.942 | 1.05 | 0.835 | 0.94 | 1.12 | 0.639 | 0.537 | 0.534 | 0.51 | 0.463 | 0.447 | 0.187 | 0.208 | 0.243 | 0.207 | 0.177
3 | NCI-H3122 | 0.947 | 1.02 | 1.05 | 0.988 | 1 | 1.08 | 1.08 | 0.974 | 0.924 | 0.918 | 0.182 | 0.189 | 0.187 | 0.14 | 0.188 | 0.684 | 0.837 | 0.735 | 0.291 | 0.928
4 | PC-3 [JPC-3] | 0.833 | 0.841 | 0.826 | 0.834 | 0.793 | 0.895 | 0.906 | 0.947 | 1.01 | 0.93 | 0.526 | 0.585 | 0.544 | 0.518 | 0.522 | 1.02 | 0.975 | 0.935 | 0.946 | 0.97
